According to patent US20220387350A1, “CANNABIDIVARIN PREPARATIONS FOR USE AS A MEDICAMENT” (GW Research Limited, priority 2019, published 2022):
Where “and” joins values, the source holds several entries; their conditions need not be identical. Equal values may be shown once.

Columns and labels:
[1] = cited from earlier work
[2] = Autofluorescence excitation scan (Ensight multimodal plate reader); assay type: physicochemical; details: 100 mM; for excitation peak point (first, lower-wavelength peak) / excitation peak point (second, higher-wavelength peak) / fluorescence intensity at first excitation peak / fluorescence intensity at second excitation peak: ethanol as vehicle
Description: (§1) Botanically derived purified CBDV (BOT) and Synthetic CBDV (SYN) were tested in duplicates at five concentrations of 0.1 mM, 0.5 mM, 1 mM, 50 mM and 100 mM in 100% DMSO or 100% Ethanol.
(§2) 200 μL of each sample or buffer were added into microplates in duplicate. Measurement has been performed on the Ensight multimodal plate reader (Perkin Elmer).
An excitation scan was used to detect the excitation peak for each test substance. The excitation scan was set from 230 to 380 nm and below the emission wavelength of 400 nm. The excitation scan was also set from 230 to 420 nm and below the emission wavelength of 440 nm. In both cases, a step increment of 2 nm was used for these scans.
Based on these analyses, the peaks of excitation wavelengths for the two tentative emission wavelengths were determined and used to identify the optimal excitation wavelength/s.

[3] = test system: sub-chronic PCP-induced deficit in novel object recognition; assay: Novel object recognition (NOR) test after sub-chronic PCP, animal model of schizophrenia; assay type: in vivo, rat (female hooded-Lister)
Source text: The effect of PCP in the novel object recognition (NOR) test is a model of visual recognition memory deficits similar to those observed in schizophrenia. The atypical antipsychotics, clozapine and risperidone, can attenuate the deficit. The study was designed to determine if botanically derived purified CBDV and/or synthetic CBDV could attenuate the deficits in novel object recognition caused by administration of PCP.
Female hooded-Lister rats were used for this experiment. Rats were housed in groups of 5 under standard laboratory conditions under a 12 hr light: dark cycle, with lights on at 0700 hr. Testing was carried out in the light phase. Rats were randomly assigned to two treatment groups and treated with vehicle, n=15 (distilled water, i.p.) or Phencyclidine hydrochloride (PCP), n=75 (2 mg/kg, i.p. twice daily for 7-days). PCP was dissolved in distilled water. This was followed by a 7-day wash out period before the rats were tested following acute treatment with […], risperidone or vehicle. […]
Following the 3 minute habituation period, the rats are given two 3 minute trials (T1 and T2) which were separated by a 1 minute inter-trial interval in the home cage during which the objects were changed. Behavior in all trials was recorded on video for subsequent blind scoring. […]
The exploration time(s) of each object (A, B, familiar and novel) in each trial were recorded using two stopwatches and the following factors were calculated: total exploration time of both objects in the acquisition trial, total exploration time of both objects in the retention trial. Habituation of exploratory activity included the exploration time, as measured by the number of lines crossed, for both trials.
All data were assessed for normality using D'Agostino and Pearson normality test. Data non-normally distributed were analyzed using Kruskal-Wallis followed by planned comparisons with Dunn's correction. Normally distributed data were analyzed using one-way ANOVA followed by planned comparisons with Sidak's correction. […]

[4] = Autofluorescence emission scan (Ensight multimodal plate reader); assay type: physicochemical; details: 100 mM
Description: as §1, §2
In order to confirm the emission peak of the test substance, an emission scan was performed using the excitation peaks identified after the excitation scan. The […] was set to start for botanically derived purified CBDV and synthetic CBDV at 20 nm above the tentative excitation values using a step increment of 2 nm. Wavelengths up to 800 nm were scanned for emission.
The wavelength giving the maximum emission for the samples was defined as the optimal emission wavelength for the chosen excitation wavelength.

[5] = emission wavelength set at 400 nm
[6] = emission wavelength set at 440 nm
[7] = DMSO as vehicle, excitation wavelength set at 328 nm
[8] = DMSO as vehicle, excitation wavelength set at 334 nm
[9] = DMSO as vehicle, excitation wavelength set at 344 nm
[10] = ethanol as vehicle, excitation wavelength set at 326 nm
[11] = ethanol as vehicle, excitation wavelength set at 340 nm

## C=C(C)[C@@H]1CCC(C)=C[C@H]1c1c(O)cc(CCC)cc1O [CBDV, 2-[(1R,6R)-3-Methyl-6-(1-methylethenyl)-2-cyclohexen-1-yl]-5-propyl-1,3-benzenediol]
[1]; organic solvents
  solubility in organic solvents: soluble
[1]; water
  solubility in water: insoluble

## C=C(C)[C@@H]1CCC(C)=C[C@H]1c1c(O)cc(CCC)cc1O [synthetic CBDV, Cannabidivarin]
[2]; [5]
  excitation peak point (first, lower-wavelength peak): 282 nm
  excitation peak point (second, higher-wavelength peak): 324 nm
  fluorescence intensity at first excitation peak: 139797 au
  fluorescence intensity at second excitation peak: 123100 au
[2]; [6]
  excitation peak point (first, lower-wavelength peak): 280 nm
  excitation peak point (second, higher-wavelength peak): 326 nm
  fluorescence intensity at first excitation peak: 39433 au
  fluorescence intensity at second excitation peak: 41443 au
[2]; pure DMSO as vehicle, emission wavelength set at 400 nm
  excitation peak points: 282 nm and 326 nm
[3]; 70 kg human, rat dose x 0.16 x 70
  human daily amount of CBDV corresponding to the rat MED: 224 mg/day
[3]; rat dose multiplied by 0.16 (FDA dose conversion guidance)
  human equivalent dose of the rat MED: 3.2 mg/kg/day
[3]; rats, 2-20 mg/kg i.p., 60 min ppt, n=8-10 per group
  minimal effective dose (MED) attenuating sub-chronic PCP-induced deficit in novel object recognition: 20 mg/kg
[4]; [7]
  emission peak point: 394 nm
  fluorescence intensity at emission peak: 264597 au
[4]; [8]
  emission peak point: 392 nm
  fluorescence intensity at emission peak: 201880 au
[4]; [9]
  emission peak point: 390 nm
  fluorescence intensity at emission peak: 158071 au
[4]; [10]
  emission peak point: 390 nm
  fluorescence intensity at emission peak: 67541 au
[4]; [11]
  emission peak wavelength: 378 nm
  fluorescence intensity at peak: 29009 au
